Measurements published in the supplement of paper PMC4862054.

How the values were obtained:
MDA-MB-231 [1] = experiment: normalised viability (% of control), CellTiter-Blue; higher = more viable cells (about 100 = DMSO control); settings: 100 nM; incubation time: 72 h
Procedure: (§1)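 DSRT, CellTiter-Blue viability, 72 h incubation. Signal is normalised to DMSO and benzethonium chloride controls. Value is the normalised response at dose 3.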

Hs578T [2] = experiment: as above; settings: 100 nM; incubation time: 72 h
Procedure: as §1

MDA-MB-453 [3] = experiment: as above; settings: 10 nM; incubation time: 72 h
Procedure: as §1

MDA-MB-468 [4] = experiment: as above; settings: 100 nM; incubation time: 72 h
Procedure: as §1

MFM-223 = experiment: as above; settings: 100 nM; incubation time: 72 h
Procedure: as §1

CAL-148 [5] = experiment: as above; settings: 10 nM; incubation time: 72 h
Procedure: as §1

BT-549 [6] = experiment: as above; settings: 100 nM; incubation time: 72 h
Procedure: as §1

DU-4475 [7] = experiment: as above; settings: 10 nM; incubation time: 72 h
Procedure: as §1

CAL-120 [8] = experiment: as above; settings: 100 nM; incubation time: 72 h
Procedure: as §1

MDA-MB-453 [9] = experiment: as above; settings: 300 nM; incubation time: 72 h
Procedure: (§2)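 DSRT, CellTiter-Blue viability, 72 h incubation. Signal is normalised to DMSO and benzethonium chloride controls. Value is the normalised response at dose 6.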

HDQ-P1 [10] = experiment: as above; settings: 300 nM; incubation time: 72 h
Procedure: as §2

CAL-148 [11] = experiment: as above; settings: 300 nM; incubation time: 72 h
Procedure: as §2

CAL-85-1 [12] = experiment: as above; settings: 300 nM; incubation time: 72 h
Procedure: as §2

CAL-51 [13] = experiment: as above; settings: 300 nM; incubation time: 72 h
Procedure: as §2

DU-4475 [14] = experiment: as above; settings: 300 nM; incubation time: 72 h
Procedure: as §2

MDA-MB-453 [15] = experiment: as above; settings: 1000 nM; incubation time: 72 h
Procedure: (§3)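 DSRT, CellTiter-Blue viability, 72 h incubation. Signal is normalised to DMSO and benzethonium chloride controls. Value is the normalised response at dose 7.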

HDQ-P1 [16] = experiment: as above; settings: 1000 nM; incubation time: 72 h
Procedure: as §3

CAL-148 [17] = experiment: as above; settings: 1000 nM; incubation time: 72 h
Procedure: as §3

CAL-85-1 [18] = experiment: as above; settings: 1000 nM; incubation time: 72 h
Procedure: as §3

CAL-51 [19] = experiment: as above; settings: 1000 nM; incubation time: 72 h
Procedure: as §3

DU-4475 [20] = experiment: as above; settings: 1000 nM; incubation time: 72 h
Procedure: as §3

MDA-MB-453 [21] = settings: 72 h
Procedure, shortened: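 Plates of 384 wells holding compound in 5 µl medium received breast cancer cell lines in 20 µl suspension and were incubated 72 h. CellTiter-Blue (2.5 µl, 2 h, 37 °C) was used for viability, read at 560/590 nm, and every plate was normalised to vehicle and a positive kill control and assessed by Z'-factor. The EC50 derives from a percent-inhibition dose-response curve fit censored at the highest concentration, leaving out rows whose drug sensitivity score was zero.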

MDA-MB-231 [22] = settings: 72 h
Procedure, shortened: (§4)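 Breast cancer cell lines (20 µl suspension) were seeded into 384-well plates holding compound at 5 concentrations in 10-fold steps over a compound-specific 10,000-fold range, then incubated 72 h. Cell death was read first by CellTox Green fluorescence (485/520 nm), then viability by CellTiter-Glo luminescence after 10 min at room temperature. Each plate was normalised to 0.1 % DMSO and a positive kill control. EC50 was fitted from the dose-response curves and censored at the top concentration.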

Hs578T [23] = settings: 72 h
Procedure, shortened: as §4

MDA-MB-436 = settings: 72 h
Procedure, shortened: as §4

MDA-MB-453 [24] = settings: 72 h; remark: listed apart in the source
Procedure, shortened: as §4

SK-BR-3 = settings: 72 h
Procedure, shortened: as §4

MDA-MB-468 [25] = settings: 72 h
Procedure, shortened: as §4

HCC1937 = settings: 72 h
Procedure, shortened: as §4

BT-549 [26] = settings: 72 h
Procedure, shortened: as §4

CAL-85-1 [27] = settings: 72 h
Procedure, shortened: as §4

CAL-51 [28] = settings: 72 h
Procedure, shortened: as §4

MCF-10A = settings: 72 h
Procedure, shortened: as §4

CAL-120 [29] = settings: 72 h
Procedure, shortened: as §4

BT-474 = settings: 72 h
Procedure, shortened: as §4

Work on `CN1CCN(CCOc2cc(OC3CCOCC3)c3c(Nc4c(Cl)ccc5c4OCO5)ncnc3c2)CC1` [Saracatinib] yielded a normalised viability (MDA-MB-231 [1]) of 76.5%, a normalised viability (Hs578T [2]) of 95.7% and a normalised viability (MDA-MB-453 [3]) of 105%. The normalised viability (MDA-MB-468 [4]) was 104%, the normalised viability (MFM-223) was 99.6% and the normalised viability (CAL-148 [5]) was 80.7%. For the same compound, the normalised viability (BT-549 [6]) was 112%, the normalised viability (DU-4475 [7]) was 105% and the normalised viability (CAL-120 [8]) was 87.7%. For the same compound, the normalised viability (MDA-MB-453 [9]) was 104%, the normalised viability (HDQ-P1 [10]) was 85.4% and the normalised viability (CAL-148 [11]) was 92.4%. For the same compound, the normalised viability (CAL-85-1 [12]) was 88.6%, the normalised viability (CAL-51 [13]) was 85.7% and the normalised viability (DU-4475 [14]) was 96.8%. The normalised viability (MDA-MB-453 [15]) was 86.5%, the normalised viability (HDQ-P1 [16]) was 40.6% and the normalised viability (CAL-148 [17]) was 83.9%. For the same compound, the normalised viability (CAL-85-1 [18]) was 51.4%, the normalised viability (CAL-51 [19]) was 60.9% and the normalised viability (DU-4475 [20]) was 102%. The “EC50, CellTiter-Blue viability” value (MDA-MB-453 [21]) was 2540 nM, the “EC50, CellTiter-Glo” value (MDA-MB-231 [22]) was 901 nM and the “EC50, CellTiter-Glo” value (Hs578T [23]) was 2330 nM. The “EC50, CellTiter-Glo” value (MDA-MB-436) was > 10000 nM, the “EC50, CellTiter-Glo” value (MDA-MB-453 [24]) was 1360 nM and the “EC50, CellTiter-Glo” value (SK-BR-3) was 2120 nM. The “EC50, CellTiter-Glo” value (MDA-MB-468 [25]) was 1840 nM, the “EC50, CellTiter-Glo” value (HCC1937) was > 10000 nM and the “EC50, CellTiter-Glo” value (BT-549 [26]) was 1600 nM. The “EC50, CellTiter-Glo” value (CAL-85-1 [27]) was 953 nM, the “EC50, CellTiter-Glo” value (CAL-51 [28]) was 805 nM and the “EC50, CellTiter-Glo” value (MCF-10A) was 354 nM. For the same compound, the “EC50, CellTiter-Glo” value (CAL-120 [29]) was > 10000 nM and the “EC50, CellTiter-Glo” value (BT-474) was 2010 nM.
